Measured values as given in US8053470B2, “Process for the preparation of polynuclear ferric hydroxide-saccaride complexes” (Chongqing Pharmaceutical Research Institute Co., Ltd., priority 2005, dated 2011).

Assay: Isoelectric point of the iron-saccharide complex: pH at which its aqueous solution turns turbid on drop-wise addition of diluted hydrochloric acid (USP 27 iron sucrose injection method)
Assay type: physicochemical
Conditions: examples described in text; Example 1 measured by method of 27th version of USP
Text: The term “isoelectric point” herein refers to a pH value at which the aqueous solution of iron-saccharide complexes turns turbid during the drop-wise addition of a diluted hydrochloric acid solution.

| Substance | isoelectric point of the final product |
| --- | --- |
| Polynuclear Ferric Hydroxide-sucrose Complex [Example 1] | 4.4 |
| Polynuclear Ferric Hydroxide-fructose Complex [Example 11] | 5.2 |
